Test results: the kinase profiling compilation of Christmann-Franck et al. (2016)

Key:
Test in all cases: radiometric filter-binding kinase assay
NEK2 (human) = NEK2 (human) (UniProt P51955)
PRKAA1 or PRKAA2 (rat) = conditions: accession and sequence are those of the human protein
PRKACA (human) = PRKACA (human) (UniProt P17612)
IKBKB (human) = IKBKB (human) (UniProt O14920)
MAPK1 (human) = MAPK1 (human) (UniProt P28482)
SRC (human) = SRC (human) (UniProt P12931)
PAK7 (human) = PAK7 (human) (UniProt Q9P286)
Chain of PAK7 (human) (Q9P286 whole entry, looked up): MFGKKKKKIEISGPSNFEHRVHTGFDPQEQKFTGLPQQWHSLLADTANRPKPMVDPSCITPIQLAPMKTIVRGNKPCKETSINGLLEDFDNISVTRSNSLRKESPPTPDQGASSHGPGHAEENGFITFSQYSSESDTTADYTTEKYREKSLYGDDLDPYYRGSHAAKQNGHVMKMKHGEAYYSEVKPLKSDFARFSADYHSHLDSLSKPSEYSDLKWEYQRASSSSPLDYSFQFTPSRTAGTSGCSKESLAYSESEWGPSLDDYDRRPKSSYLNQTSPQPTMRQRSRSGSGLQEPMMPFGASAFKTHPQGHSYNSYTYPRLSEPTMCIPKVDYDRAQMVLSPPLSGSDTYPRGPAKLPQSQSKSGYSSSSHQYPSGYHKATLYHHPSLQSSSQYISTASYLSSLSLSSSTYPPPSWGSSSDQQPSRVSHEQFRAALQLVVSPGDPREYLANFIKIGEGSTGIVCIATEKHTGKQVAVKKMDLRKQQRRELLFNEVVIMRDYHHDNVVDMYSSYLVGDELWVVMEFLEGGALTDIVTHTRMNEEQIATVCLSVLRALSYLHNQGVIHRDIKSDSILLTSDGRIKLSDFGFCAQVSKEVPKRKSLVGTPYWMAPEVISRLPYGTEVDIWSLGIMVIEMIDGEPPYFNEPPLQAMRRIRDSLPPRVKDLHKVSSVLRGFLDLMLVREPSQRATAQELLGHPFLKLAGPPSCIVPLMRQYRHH

MKNK2 (human) = MKNK2 (human) (UniProt Q9HBH9)
IKBKE (human) = IKBKE (human) (UniProt Q14164)
[1] = system: AKT2 (human), P31751 [S474D]
RPS6KA3 KD1 KD2 (human) = RPS6KA3 KD1 KD2 (human) (UniProt P51812)
EPHB1 (human) = EPHB1 (human) (UniProt P54762)
Chain of EPHB1 (human) (P54762 whole entry, looked up): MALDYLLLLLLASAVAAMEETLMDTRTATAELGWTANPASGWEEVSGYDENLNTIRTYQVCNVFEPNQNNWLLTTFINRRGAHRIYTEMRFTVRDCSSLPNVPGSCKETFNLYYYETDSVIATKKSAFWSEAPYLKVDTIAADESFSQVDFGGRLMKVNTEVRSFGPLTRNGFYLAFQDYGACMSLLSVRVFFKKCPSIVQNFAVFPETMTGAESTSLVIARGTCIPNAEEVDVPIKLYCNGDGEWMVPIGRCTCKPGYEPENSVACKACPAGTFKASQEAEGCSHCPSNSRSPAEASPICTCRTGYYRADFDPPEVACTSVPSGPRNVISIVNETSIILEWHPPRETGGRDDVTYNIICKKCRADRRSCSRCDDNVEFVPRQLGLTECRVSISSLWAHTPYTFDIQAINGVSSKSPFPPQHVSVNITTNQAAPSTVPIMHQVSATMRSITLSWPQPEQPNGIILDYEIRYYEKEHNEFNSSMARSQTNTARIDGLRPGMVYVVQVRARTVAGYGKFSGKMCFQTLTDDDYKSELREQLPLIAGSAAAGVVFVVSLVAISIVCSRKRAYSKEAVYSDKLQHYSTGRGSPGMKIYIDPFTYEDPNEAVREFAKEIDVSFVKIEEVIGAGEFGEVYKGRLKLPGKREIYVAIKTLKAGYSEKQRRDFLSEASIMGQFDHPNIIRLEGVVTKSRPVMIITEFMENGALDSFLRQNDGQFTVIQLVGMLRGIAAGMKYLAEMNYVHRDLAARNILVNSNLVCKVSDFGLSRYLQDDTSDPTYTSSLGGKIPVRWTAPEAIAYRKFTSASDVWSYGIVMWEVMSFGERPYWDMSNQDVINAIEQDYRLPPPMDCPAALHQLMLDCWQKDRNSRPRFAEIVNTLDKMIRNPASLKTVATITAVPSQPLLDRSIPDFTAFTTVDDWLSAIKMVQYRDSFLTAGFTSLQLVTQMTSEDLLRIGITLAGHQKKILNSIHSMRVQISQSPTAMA

EPHB4 (human) = EPHB4 (human) (UniProt P54760)
CSNK1D (human) = CSNK1D (human) (UniProt P48730)
FLT1 (human) = FLT1 (human) (UniProt P17948)
RPS6KA1 KD1 KD2 (human) = RPS6KA1 KD1 KD2 (human) (UniProt Q15418)
MAPK3 (human) = MAPK3 (human) (UniProt P27361)
MAPK15 (human) = MAPK15 (human) (UniProt Q8TD08)
SYK (human) = SYK (human) (UniProt P43405)
PIM2 (human) = PIM2 (human) (UniProt Q9P1W9)
TTK (human) = TTK (human) (UniProt P33981)
Chain of TTK (human) (P33981 whole entry, looked up): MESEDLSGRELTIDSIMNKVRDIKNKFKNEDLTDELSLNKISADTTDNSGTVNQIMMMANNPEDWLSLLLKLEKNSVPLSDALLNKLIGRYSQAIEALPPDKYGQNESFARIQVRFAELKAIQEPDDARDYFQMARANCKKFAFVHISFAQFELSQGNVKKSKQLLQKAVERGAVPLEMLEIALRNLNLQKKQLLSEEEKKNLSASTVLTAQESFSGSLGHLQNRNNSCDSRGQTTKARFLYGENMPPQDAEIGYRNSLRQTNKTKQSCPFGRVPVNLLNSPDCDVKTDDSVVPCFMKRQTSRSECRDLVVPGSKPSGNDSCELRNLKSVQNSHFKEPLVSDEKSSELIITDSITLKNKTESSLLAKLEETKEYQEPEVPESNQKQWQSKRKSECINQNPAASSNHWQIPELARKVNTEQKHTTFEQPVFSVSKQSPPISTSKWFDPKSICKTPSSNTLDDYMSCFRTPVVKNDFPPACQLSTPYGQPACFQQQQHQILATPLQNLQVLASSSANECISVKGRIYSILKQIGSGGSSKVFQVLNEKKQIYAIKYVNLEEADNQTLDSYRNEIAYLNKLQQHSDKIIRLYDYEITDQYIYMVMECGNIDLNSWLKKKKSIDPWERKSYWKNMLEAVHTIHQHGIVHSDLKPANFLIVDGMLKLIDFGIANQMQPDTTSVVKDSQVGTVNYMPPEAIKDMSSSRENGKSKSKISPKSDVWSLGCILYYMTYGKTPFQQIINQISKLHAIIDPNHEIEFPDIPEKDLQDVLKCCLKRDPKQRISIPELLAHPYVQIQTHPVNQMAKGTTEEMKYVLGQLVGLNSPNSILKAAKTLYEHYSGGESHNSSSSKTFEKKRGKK

INSRR (human) = INSRR (human) (UniProt P14616)
MAPKAPK3 (human) = MAPKAPK3 (human) (UniProt Q16644)
PLK1 (human) = PLK1 (human) (UniProt P53350)
RPS6KA5 KD1 KD2 (human) = RPS6KA5 KD1 KD2 (human) (UniProt O75582)
Chain of RPS6KA5 KD1 KD2 (human) (O75582 whole entry, looked up): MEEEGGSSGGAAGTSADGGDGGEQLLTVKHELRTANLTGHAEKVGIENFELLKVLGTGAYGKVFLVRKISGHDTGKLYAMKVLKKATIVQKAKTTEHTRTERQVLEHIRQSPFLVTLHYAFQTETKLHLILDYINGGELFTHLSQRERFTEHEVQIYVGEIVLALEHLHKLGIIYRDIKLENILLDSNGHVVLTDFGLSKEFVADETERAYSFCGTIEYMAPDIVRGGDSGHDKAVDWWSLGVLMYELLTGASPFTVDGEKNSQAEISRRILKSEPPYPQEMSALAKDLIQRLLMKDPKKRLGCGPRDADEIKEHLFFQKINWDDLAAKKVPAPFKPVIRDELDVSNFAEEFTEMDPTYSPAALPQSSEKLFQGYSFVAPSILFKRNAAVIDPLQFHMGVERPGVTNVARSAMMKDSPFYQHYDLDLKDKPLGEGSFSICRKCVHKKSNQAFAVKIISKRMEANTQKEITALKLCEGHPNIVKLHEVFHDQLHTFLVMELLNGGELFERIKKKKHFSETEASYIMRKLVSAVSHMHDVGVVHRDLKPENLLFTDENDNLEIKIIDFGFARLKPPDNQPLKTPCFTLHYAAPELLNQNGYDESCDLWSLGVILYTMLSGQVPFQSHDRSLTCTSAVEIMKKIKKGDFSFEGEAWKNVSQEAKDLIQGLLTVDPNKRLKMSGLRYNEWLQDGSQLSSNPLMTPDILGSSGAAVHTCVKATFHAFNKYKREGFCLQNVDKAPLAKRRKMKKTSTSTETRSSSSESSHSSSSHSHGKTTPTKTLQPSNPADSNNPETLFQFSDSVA

[2] = system: RPS6KB1 (human), P23443 [T412E]
CHEK2 (human) = CHEK2 (human) (UniProt O96017)
MAP2K1 (human) = MAP2K1 (human) (UniProt Q02750)
NEK6 (human) = NEK6 (human) (UniProt Q9HC98)
Chain of NEK6 (human) (Q9HC98 whole entry, looked up): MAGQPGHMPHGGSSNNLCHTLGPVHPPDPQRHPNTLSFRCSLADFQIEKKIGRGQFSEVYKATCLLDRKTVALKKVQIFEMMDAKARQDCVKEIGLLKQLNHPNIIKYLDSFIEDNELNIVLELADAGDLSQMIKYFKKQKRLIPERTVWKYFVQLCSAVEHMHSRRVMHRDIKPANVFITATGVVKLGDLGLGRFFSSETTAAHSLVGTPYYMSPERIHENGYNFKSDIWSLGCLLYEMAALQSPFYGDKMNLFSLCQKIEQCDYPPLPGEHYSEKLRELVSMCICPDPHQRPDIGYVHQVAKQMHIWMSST

EPHA4 (human) = EPHA4 (human) (UniProt P54764)
RIPK2 (human) = RIPK2 (human) (UniProt O43353)
CDK2 CCNA2 (human) = CDK2 CCNA2 (human) (UniProt P20248+P24941)
MAPK14 (human) = MAPK14 (human) (UniProt Q16539)
CSK (human) = CSK (human) (UniProt P41240)
BTK (human) = BTK (human) (UniProt Q06187); conditions: compound 0.1 µM

Chain of IKBKB (human) (O14920 whole entry, looked up): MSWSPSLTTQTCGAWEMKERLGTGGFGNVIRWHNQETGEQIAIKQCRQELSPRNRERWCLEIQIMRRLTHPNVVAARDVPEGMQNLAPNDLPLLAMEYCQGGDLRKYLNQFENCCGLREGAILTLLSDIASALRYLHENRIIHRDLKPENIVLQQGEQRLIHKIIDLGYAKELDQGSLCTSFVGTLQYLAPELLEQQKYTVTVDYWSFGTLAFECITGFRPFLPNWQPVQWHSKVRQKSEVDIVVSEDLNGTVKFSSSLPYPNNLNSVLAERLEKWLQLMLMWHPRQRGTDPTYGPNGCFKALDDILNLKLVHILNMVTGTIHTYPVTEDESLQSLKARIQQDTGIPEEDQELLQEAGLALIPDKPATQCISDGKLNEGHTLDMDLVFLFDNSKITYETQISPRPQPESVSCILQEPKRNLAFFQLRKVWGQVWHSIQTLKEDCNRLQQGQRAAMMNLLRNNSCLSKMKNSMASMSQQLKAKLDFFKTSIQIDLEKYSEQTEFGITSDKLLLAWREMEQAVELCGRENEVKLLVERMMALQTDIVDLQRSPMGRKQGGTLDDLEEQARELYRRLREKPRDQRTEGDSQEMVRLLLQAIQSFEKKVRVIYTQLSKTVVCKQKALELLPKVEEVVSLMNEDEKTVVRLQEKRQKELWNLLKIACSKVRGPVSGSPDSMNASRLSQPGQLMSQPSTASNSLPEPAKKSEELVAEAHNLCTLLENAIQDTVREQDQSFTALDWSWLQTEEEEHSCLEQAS
Chain of MAPK1 (human) (P28482 whole entry, looked up): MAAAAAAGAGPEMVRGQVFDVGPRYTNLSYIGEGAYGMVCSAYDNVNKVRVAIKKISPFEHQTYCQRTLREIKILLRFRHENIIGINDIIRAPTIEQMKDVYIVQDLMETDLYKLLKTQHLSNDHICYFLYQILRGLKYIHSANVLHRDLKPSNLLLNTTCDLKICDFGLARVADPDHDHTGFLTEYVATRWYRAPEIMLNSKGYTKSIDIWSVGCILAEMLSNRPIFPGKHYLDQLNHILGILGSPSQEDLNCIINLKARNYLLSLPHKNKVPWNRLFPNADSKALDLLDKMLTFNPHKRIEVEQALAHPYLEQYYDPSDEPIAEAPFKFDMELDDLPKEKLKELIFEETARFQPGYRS

## CC(C)(C#N)c1ccc(N2C(=O)OCc3cnc4ccc(-c5cnc6ccccc6c5)cc4c32)cc1
NEK2 (human); compound 1.0 µM
  residual activity: 108%
NEK2 (human); compound 10.0 µM
  residual activity: 103%
PRKAA1 or PRKAA2 (rat); compound 1.0 µM
  residual activity: 91%
PRKAA1 or PRKAA2 (rat); compound 10.0 µM
  residual activity: 89%
PRKACA (human); compound 10.0 µM
  residual activity: 92%
IKBKB (human); compound 1.0 µM
  residual activity: 86%
IKBKB (human); compound 10.0 µM
  residual activity: 87%
MAPK1 (human); compound 1.0 µM
  residual activity: 83%
MAPK1 (human); compound 10.0 µM
  residual activity: 95%
SRC (human); compound 1.0 µM
  residual activity: 83%
SRC (human); compound 10.0 µM
  residual activity: 130%
PAK7 (human); compound 1.0 µM
  residual activity: 99%
PAK7 (human); compound 10.0 µM
  residual activity: 80%
MKNK2 (human); compound 1.0 µM
  residual activity: 94%
MKNK2 (human); compound 10.0 µM
  residual activity: 99%
IKBKE (human); compound 1.0 µM
  residual activity: 111%
IKBKE (human); compound 10.0 µM
  residual activity: 97%
[1]; compound 10.0 µM
  residual activity: 100%
RPS6KA3 KD1 KD2 (human); compound 1.0 µM
  residual activity: 89%
RPS6KA3 KD1 KD2 (human); compound 10.0 µM
  residual activity: 100%
EPHB1 (human); compound 1.0 µM
  residual activity: 93%
EPHB1 (human); compound 10.0 µM
  residual activity: 119%
EPHB4 (human); compound 1.0 µM
  residual activity: 102%
EPHB4 (human); compound 10.0 µM
  residual activity: 96%
CSNK1D (human); compound 1.0 µM
  residual activity: 92%
CSNK1D (human); compound 10.0 µM
  residual activity: 95%
FLT1 (human); compound 1.0 µM
  residual activity: 87%
FLT1 (human); compound 10.0 µM
  residual activity: 107%
RPS6KA1 KD1 KD2 (human); compound 1.0 µM
  residual activity: 96%
RPS6KA1 KD1 KD2 (human); compound 10.0 µM
  residual activity: 73%
MAPK3 (human); compound 1.0 µM
  residual activity: 85%
MAPK3 (human); compound 10.0 µM
  residual activity: 83%
MAPK15 (human); compound 1.0 µM
  residual activity: 73%
MAPK15 (human); compound 10.0 µM
  residual activity: 67%
SYK (human); compound 1.0 µM
  residual activity: 105%
SYK (human); compound 10.0 µM
  residual activity: 76%
PIM2 (human); compound 1.0 µM
  residual activity: 91%
PIM2 (human); compound 10.0 µM
  residual activity: 96%
TTK (human); compound 1.0 µM
  residual activity: 91%
TTK (human); compound 10.0 µM
  residual activity: 86%
INSRR (human); compound 1.0 µM
  residual activity: 74%
INSRR (human); compound 10.0 µM
  residual activity: 77%
MAPKAPK3 (human); compound 1.0 µM
  residual activity: 88%
PLK1 (human); compound 1.0 µM
  residual activity: 93%
PLK1 (human); compound 10.0 µM
  residual activity: 87%
RPS6KA5 KD1 KD2 (human); compound 1.0 µM
  residual activity: 74%
RPS6KA5 KD1 KD2 (human); compound 10.0 µM
  residual activity: 53%
[2]; compound 1.0 µM
  residual activity: 91%
[2]; compound 10.0 µM
  residual activity: 96%
CHEK2 (human); compound 1.0 µM
  residual activity: 95%
CHEK2 (human); compound 10.0 µM
  residual activity: 94%
MAP2K1 (human); compound 1.0 µM
  residual activity: 78%
MAP2K1 (human); compound 10.0 µM
  residual activity: 96%
NEK6 (human); compound 1.0 µM
  residual activity: 83%
NEK6 (human); compound 10.0 µM
  residual activity: 40%
EPHA4 (human); compound 1.0 µM
  residual activity: 89%
EPHA4 (human); compound 10.0 µM
  residual activity: 89%
RIPK2 (human); compound 1.0 µM
  residual activity: 57%
RIPK2 (human); compound 10.0 µM
  residual activity: 38%
CDK2 CCNA2 (human); compound 1.0 µM
  residual activity: 90%
CDK2 CCNA2 (human); compound 10.0 µM
  residual activity: 85%
MAPK14 (human); compound 1.0 µM
  residual activity: 93%
MAPK14 (human); compound 10.0 µM
  residual activity: 134%
CSK (human); compound 1.0 µM
  residual activity: 75%
CSK (human); compound 10.0 µM
  residual activity: 89%

## Cc1cc(NC(=O)c2cccc(NC(=O)/C=C/CN(C)C)c2)ccc1Nc1nccc(-c2cccnc2)n1
NEK2 (human); compound 0.1 µM
  residual activity: 105%
NEK2 (human); compound 1.0 µM
  residual activity: 100%
PRKAA1 or PRKAA2 (rat); compound 0.1 µM
  residual activity: 101%
PRKAA1 or PRKAA2 (rat); compound 1.0 µM
  residual activity: 77%
PRKACA (human); compound 0.1 µM
  residual activity: 105%
PRKACA (human); compound 1.0 µM
  residual activity: 93%
IKBKB (human); compound 0.1 µM
  residual activity: 62%
IKBKB (human); compound 1.0 µM
  residual activity: 74%
MAPK1 (human); compound 0.1 µM
  residual activity: 110%
MAPK1 (human); compound 1.0 µM
  residual activity: 100%
SRC (human); compound 0.1 µM
  residual activity: 85%
SRC (human); compound 1.0 µM
  residual activity: 50%
PAK7 (human); compound 0.1 µM
  residual activity: 100%
PAK7 (human); compound 1.0 µM
  residual activity: 82%
MKNK2 (human); compound 0.1 µM
  residual activity: 84%
MKNK2 (human); compound 1.0 µM
  residual activity: 67%
IKBKE (human); compound 0.1 µM
  residual activity: 92%
IKBKE (human); compound 1.0 µM
  residual activity: 94%
[1]; compound 0.1 µM
  residual activity: 99%
[1]; compound 1.0 µM
  residual activity: 91%
RPS6KA3 KD1 KD2 (human); compound 0.1 µM
  residual activity: 82%
RPS6KA3 KD1 KD2 (human); compound 1.0 µM
  residual activity: 76%
EPHB1 (human); compound 0.1 µM
  residual activity: 97%
EPHB1 (human); compound 1.0 µM
  residual activity: 95%
EPHB4 (human); compound 0.1 µM
  residual activity: 97%
EPHB4 (human); compound 1.0 µM
  residual activity: 98%
CSNK1D (human); compound 0.1 µM
  residual activity: 89%
CSNK1D (human); compound 1.0 µM
  residual activity: 57%
FLT1 (human); compound 0.1 µM
  residual activity: 100%
FLT1 (human); compound 1.0 µM
  residual activity: 53%
RPS6KA1 KD1 KD2 (human); compound 0.1 µM
  residual activity: 89%
RPS6KA1 KD1 KD2 (human); compound 1.0 µM
  residual activity: 81%
MAPK3 (human); compound 0.1 µM
  residual activity: 103%
MAPK3 (human); compound 1.0 µM
  residual activity: 99%
MAPK15 (human); compound 0.1 µM
  residual activity: 90%
MAPK15 (human); compound 1.0 µM
  residual activity: 64%
SYK (human); compound 0.1 µM
  residual activity: 103%
SYK (human); compound 1.0 µM
  residual activity: 88%
PIM2 (human); compound 0.1 µM
  residual activity: 104%
PIM2 (human); compound 1.0 µM
  residual activity: 99%
TTK (human); compound 0.1 µM
  residual activity: 85%
TTK (human); compound 1.0 µM
  residual activity: 65%
INSRR (human); compound 0.1 µM
  residual activity: 93%
MAPKAPK3 (human); compound 1.0 µM
  residual activity: 90%
PLK1 (human); compound 0.1 µM
  residual activity: 98%
PLK1 (human); compound 1.0 µM
  residual activity: 94%
RPS6KA5 KD1 KD2 (human); compound 0.1 µM
  residual activity: 91%
RPS6KA5 KD1 KD2 (human); compound 1.0 µM
  residual activity: 80%
[2]; compound 0.1 µM
  residual activity: 98%
[2]; compound 1.0 µM
  residual activity: 93%
CHEK2 (human); compound 0.1 µM
  residual activity: 102%
CHEK2 (human); compound 1.0 µM
  residual activity: 72%
MAP2K1 (human); compound 0.1 µM
  residual activity: 107%
MAP2K1 (human); compound 1.0 µM
  residual activity: 96%
NEK6 (human); compound 0.1 µM
  residual activity: 95%
NEK6 (human); compound 1.0 µM
  residual activity: 87%
EPHA4 (human); compound 0.1 µM
  residual activity: 87%
EPHA4 (human); compound 1.0 µM
  residual activity: 80%
RIPK2 (human); compound 0.1 µM
  residual activity: 82%
RIPK2 (human); compound 1.0 µM
  residual activity: 49%
CDK2 CCNA2 (human); compound 0.1 µM
  residual activity: 107%
CDK2 CCNA2 (human); compound 1.0 µM
  residual activity: 92%
MAPK14 (human); compound 0.1 µM
  residual activity: 105%
MAPK14 (human); compound 1.0 µM
  residual activity: 110%
CSK (human); compound 0.1 µM
  residual activity: 110%
CSK (human); compound 1.0 µM
  residual activity: 93%

## CN1CCN(CCOc2cc(OC3CCOCC3)c3c(Nc4c(Cl)ccc5c4OCO5)ncnc3c2)CC1
NEK2 (human); compound 0.1 µM
  residual activity: 94%
BTK (human)
  residual activity: 57%
PRKAA1 or PRKAA2 (rat); compound 0.1 µM
  residual activity: 99%
PRKACA (human); compound 0.1 µM
  residual activity: 105%
IKBKB (human); compound 0.1 µM
  residual activity: 119%
MAPK1 (human); compound 0.1 µM
  residual activity: 100%
PAK7 (human); compound 0.1 µM
  residual activity: 98%
MKNK2 (human); compound 0.1 µM
  residual activity: 110%
IKBKE (human); compound 0.1 µM
  residual activity: 88%
[1]; compound 0.1 µM
  residual activity: 86%
EPHB1 (human); compound 0.1 µM
  residual activity: 81%
EPHB4 (human); compound 0.1 µM
  residual activity: 76%
CSNK1D (human); compound 0.1 µM
  residual activity: 115%
FLT1 (human); compound 0.1 µM
  residual activity: 116%
MAPK3 (human); compound 0.1 µM
  residual activity: 93%
MAPK15 (human); compound 0.1 µM
  residual activity: 134%
PIM2 (human); compound 0.1 µM
  residual activity: 105%
TTK (human); compound 0.1 µM
  residual activity: 112%
INSRR (human); compound 0.1 µM
  residual activity: 123%
MAPKAPK3 (human); compound 0.1 µM
  residual activity: 92%
PLK1 (human); compound 0.1 µM
  residual activity: 96%
RPS6KA5 KD1 KD2 (human); compound 0.1 µM
  residual activity: 103%
[2]; compound 0.1 µM
  residual activity: 93%
CHEK2 (human); compound 0.1 µM
  residual activity: 112%
MAP2K1 (human); compound 0.1 µM
  residual activity: 97%
NEK6 (human); compound 0.1 µM
  residual activity: 101%
EPHA4 (human); compound 0.1 µM
  residual activity: 49%
RIPK2 (human); compound 0.1 µM
  residual activity: 9%
CDK2 CCNA2 (human); compound 0.1 µM
  residual activity: 96%
MAPK14 (human); compound 0.1 µM
  residual activity: 108%
CSK (human); compound 0.1 µM
  residual activity: 74%
